“And” between values parts separate entries of the source, which are not always exact repeats. Equal entries are not always repeated. The source made the active and inactive calls.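 The calls were made as follows: active = compounds giving half or more protection of infected cells from virus-caused growth loss, again on retest; inactive = the rest.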
Tested on: CEM cells HIV-1 protection, formazan growth assay
Assay: NCI AIDS Antiviral Assay
Conditions: for IC50: measured here: growth of uninfected CEM cells
Summary of the method: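 Protection of CEM cells against HIV-1 measured as cell growth via soluble formazan read-out, with five concentrations tested on both infected and uninfected cells; failure to protect may reflect toxicity.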

Row | SMILES | EC50 [µM] | IC50 | outcome
1 | Cc1ccc(C(=O)C(c2nc3n(c2O)C(=N)N=N3)c2nc3n(c2O)C(=N)N=N3)cc1 (stereo unspecified) | > 12.9 | > 12.9 µM | –
2 | O=C(Nc1ccc2c(O)c(N=Nc3ccc(S(=O)(=O)O)cc3)c(S(=O)(=O)O)cc2c1)Nc1ccc2c(O)c(N=Nc3ccc(S(=O)(=O)O)cc3)c(S(=O)(=O)O)cc2c1 | 8.91 | 110 µM | –
3 | Clc1ccc(CSc2nnc3c(n2)[nH]c2ccccc23)cc1 | > 200 | 42.7 µM | –
4 | O=C(c1ccncc1)n1nc(-c2ccccc2)c(N=Nc2ccccc2[N+](=O)[O-])c1-c1ccccc1 | > 39.8 | > 39.8 µM | –
5 | COc1ccc2nc3cccc([N+](=O)[O-])c3c(NCCN(C)C)c2c1 | > 2 | 0.0977 µM | –
6 | O=C1/C(=C/c2ccc([N+](=O)[O-])cc2)C(=O)N(c2ccccc2)C1c1ccccc1 (stereo unspecified) | > 74.1 | 41.7 µM | –
7 | COc1ccc(C(c2c(O)c3ccccc3oc2=O)c2c(O)c3ccccc3oc2=O)c(OC)c1 | > 200 | 85.1 µM | –
8 | O=c1c(SSc2coc3ccccc3c2=O)coc2ccccc12 | > 200 | 5.13 µM | –
9 | CCc1cc(=O)oc2c3c(cc(OC)c12)O[C@H](C)[C@@H](C)C3=O | > 200 | 31.6 µM | –
10 | CC1CC(=O)c2ccccc2O1 (stereo unspecified) | > 200 | > 200 µM | –
11 | O=C(O)C1=C(C(=O)O)N(c2ccncc2)C(c2ccco2)=CC1c1ccccc1[N+](=O)[O-] (stereo unspecified) | > 200 | 2.24 µM | –
12 | C(=N\N=C\c1ccccn1)/c1ccccn1 | > 200 | 61.7 µM | –
13 | Cc1nc(N)nc(N)c1N1CCN(c2ccc(S(N)(=O)=O)cc2)CC1 | > 200 | 0.398 µM | –
14 | CCCCCCCCCCCCCCCC(=O)OCC1OC(n2ccc(N)nc2=O)C(O)C1O (stereo unspecified) | > 0.2 | 0.0129 µM | –
15 | O=[N+]([O-])C(Cl)C(Cl)c1ccc(Cl)cc1 (stereo unspecified) | > 200 | 7.41 µM | –
16 | O=C(Nc1cc2c(=O)[nH]c3ccccc3c2oc1=O)c1cnccn1 | > 100 | > 100 µM | –
17 | O=c1c2ccccc2c2nccc3c4ccccc4n1c32 | > 37.2 | > 37.2 µM | –
18 | NC(N)=Nc1ccc(N)cc1 | – | – | inactive
19 | CCOP(=O)(OCC)/C(C#N)=C/c1nc[nH]c1C | > 200 | > 200 µM | –
20 | Cc1ccccc1SSc1ccccc1C | – | – | inactive
21 | CSC1=N/C(=C\c2ccc(Cl)cc2)C(=O)N1CN1CCOCC1 | > 200 | 33.1 µM | –
22 | CCOC(=O)C(=O)C1C(=O)N(C)C2(C)CC1c1ccccc1O2 (stereo unspecified) | > 200 | > 200 µM | –

Row | SMILES | EC50 [µM] | IC50 | outcome
23 | COc1ccc(/C(CCl)=C(\Nc2ccccc2)c2ccc(OC)c(OC)c2)cc1OC | > 200 | > 200 µM | –
24 | O=C(COC(=O)c1cccc2c(=O)c3ccccc3[nH]c12)Nc1ccccc1 | – | – | inactive
25 | NC(=O)C(=O)N/N=C/c1ccc([N+](=O)[O-])o1 | > 200 | 8.32 µM | –
26 | CC(C)(C)NC(=O)c1ccccc1[Se][Se]c1ccccc1C(=O)NC(C)(C)C | 10.2 | 13.2 µM | –
27 | COC(=O)CC1C2CCC1C(=O)C2 (stereo unspecified) | > 200 | > 200 µM | –
28 | COc1c(Cl)cc(C(=CCNC(=O)C[C@H]2CC[C@@]3(C)[C@@H](CC[C@@H]4[C@@H]3CC[C@]3(C)[C@@H](CC(=O)NCC=C(c5cc(Cl)c(OC)c(C(=O)O)c5)c5cc(Cl)c(OC)c(C(=O)O)c5)CC[C@@H]43)C2)c2cc(Cl)c(OC)c(C(=O)O)c2)cc1C(=O)O | 42.7 | 186 µM | –
29 | CN(C)CC(/C(Cc1ccccc1)=N\NC(=S)NN)c1ccccc1 (stereo unspecified) | > 35.5 | > 35.5 µM | –
30 | Cc1ccc2oc(=O)c(C#N)c(/C=C\c3ccccc3O)c2c1 | > 100 | 5.62 µM | –
31 | O=C(CCc1ccc(O)cc1)NCCCNC(=O)CCc1ccc(O)cc1 | > 200 | > 200 µM | –
32 | O=C(CC(C(=O)c1cccs1)c1ccsc1)c1ccco1 (stereo unspecified) | > 200 | 32.4 µM | –
33 | C/C(=N\NC(N)=S)c1ccc(C2CCCCC2)cc1 | – | – | inactive
34 | O=C(/C=C(\S/C=C(/c1ccccc1)N1CCn2c(C(=O)c3ccccc3)c(C(=O)c3ccccc3)c(C(=O)c3ccccc3)c21)C(=O)c1ccccc1)c1ccccc1 | > 200 | 37.2 µM | –
35 | COC1/C=C/OC2(C)Oc3c(C)c(O)c4c(O)c(c(/C=N/N5C(C)CN(Cc6ccccc6O)CC5C)c(O)c4c3C2=O)NC(=O)/C(C)=C\C=C\C(C)C(O)C(C)C(O)C(C)C(OC(C)=O)C1C (stereo unspecified) | > 200 | 9.55 µM | –
36 | COC(=O)CN(CC(O)C(NC(C)=O)C(O)C=O)C(=O)OCc1ccccc1 (stereo unspecified) | > 200 | > 200 µM | –
37 | CN(C)C=Nc1ccc2nonc2c1 | > 200 | 151 µM | –
38 | CCCc1[nH]nc(CCC(=O)N(Cc2ccccc2)Cc2ccccc2)c1CC | > 331 | > 331 µM | –
39 | O=C1CCC(N2C(=O)C3C4c5ccccc5C(c5ccccc54)C3C2=O)C(=O)N1 (stereo unspecified) | > 200 | > 200 µM | –
40 | O=C1O/C(=C(/Br)c2ccc(Cl)c(Cl)c2)c2ccccc21 | > 200 | 11.7 µM | –
41 | CC(=O)c1cc2sc3ccccc3c2[nH]1 | > 200 | > 200 µM | –
42 | O=[N+]([O-])c1cccc(C2CC(c3ccccc3)=Nc3ccccc3S2)c1 (stereo unspecified) | > 35.5 | 2.34 µM | –
43 | CC(=O)OCC1OC(n2c3c(cc(C#N)c2=S)CCCCCC3)C(OC(C)=O)C(OC(C)=O)C1OC(C)=O (stereo unspecified) | > 200 | 52.5 µM | –
44 | Cc1n[nH]c(=O)n1/N=C/c1ccc([N+](=O)[O-])cc1 | > 200 | > 100 µM | –

Row | SMILES | EC50 [µM] | IC50 | outcome
45 | c1ccc([P+](Cc2nc3ccccc3[nH]2)(c2ccccc2)c2ccccc2)cc1 | > 200 | 38.9 µM and 46.8 µM | –
46 | COC(=O)[C@@H]1[C@H]2CC[C@]3(C)[C@@H](OC(C)=O)CC[C@H]3[C@@H]2CC[C@H]1C1(C)SCCS1 | 10 | 24 µM | –
47 | NC(=O)CCC(CCC(N)=O)(CCC(N)=O)[N+](=O)[O-] | > 200 | > 200 µM | –
48 | O=C(/C=C(\O)C(=O)O)/C=C(\O)c1ccc(Cl)cc1 | > 69.2 | > 69.2 µM | –
49 | CC(C(=O)O)c1ccc2c(c1)[nH]c1ccc(Cl)cc12 (stereo unspecified) | > 245 | 141 µM | –
50 | CCCOC(=O)C1OC12CCCCC2 (stereo unspecified) | > 200 | > 200 µM | –
51 | Cc1cc(O)c(C=NC(=S)c2cccnc2)c(=O)o1 | > 200 | 77.6 µM | –
52 | CC(C)N1CN(c2ccccc2)C2(CCN(CCCC(=O)c3ccc(F)cc3)CC2)C1=O | > 200 | 5.75 µM | –
53 | COC(=O)c1c2c(cc3nc4ccccc4nc13)OCO2 | > 200 | > 200 µM | –
54 | COc1cc(OCc2ccc3nc(OC)c(OC)nc3c2)cc(OC)c1OC | > 200 | > 200 µM | –
55 | COC1=CC(=O)NCCN1 | 135 | 479 µM | –
56 | CN1C(=O)C2(C#N)C(C)(C)C2(C#N)C1=O (stereo unspecified) | > 200 | > 200 µM | –
57 | Cn1cc(NC(=O)c2cc(NC(=O)[C@H]3CCC(N)=N3)c[nH]2)cc1C(=O)NCCC(=N)N | – | – | active
58 | CCOC(=O)c1cc2c(C(=O)c3ccc([N+](=O)[O-])cc3)c(C(C)=O)ccc2[nH]1 | > 200 | 174 µM | –
59 | O=C(O)c1cccc2cccc(-c3c4ccc(=O)cc-4oc4cc(O)ccc34)c12 | 14.1 | 123 µM | –
60 | c1ccc(P(c2ccccc2)c2ccc(P(c3ccccc3)c3ccccc3)nn2)cc1 | > 8.51 | > 8.51 µM | –
61 | CC(=O)Oc1ccc(Nn2c3ccccc3c3ccccc32)c(C)c1 | > 200 | 11.7 µM | –
62 | C=CCOCn1ccc(NC(=O)c2ccccc2)nc1=O | > 200 | > 200 µM | –
63 | CN(/N=C/c1ccnc2ccccc12)c1ccc(Cl)cc1[N+](=O)[O-] | > 100 | 12.3 µM | –
64 | COc1ccc2c(=O)oc3c(OC)cc(CCN(C)C)c4c(=O)oc1c2c34 | – | – | inactive
65 | COC(=O)C1=C2Nc3ccccc3[C@@]23CCN(Cc2ccccc2)C3CC1[C@@H]1COC(C)(C)O1 (stereo partly specified) | > 100 | 51.3 µM | –
66 | COc1ccc(C[C@H]2COC(=O)[C@@H]2Cc2cccc(Br)c2)cc1OC | > 200 | 31.6 µM | –

Row | SMILES | EC50 [µM] | IC50 | outcome
67 | CCN(CC)CCC(=O)c1ccccc1 | > 871 | > 200 µM and 26.9 µM | –
68 | CSc1scc2c1/C(=N/NC(N)=O)CCC2 | > 200 | 91.2 µM | –
69 | N#Cc1c(N)nc(N)nc1Nc1ccc(I)cc1 | > 200 | 23.4 µM | –
70 | CC1(C)OC2COC(=O)CC2O1 (stereo unspecified) | > 200 | > 200 µM | –
71 | Oc1cc2ccc3c(c2cc1O)CCc1cn[nH]c1-3 | > 10.7 | > 10.7 µM | –
72 | Cc1ccc(NC2=N/C(=C/c3ccccc3)C(Cl)=N2)cc1 | > 100 | > 100 µM | –
73 | CCOC(=O)c1cc(/C=C/C(C)=C/C(=O)OC)n(C)c1C | > 24.5 | > 24.5 µM | –
74 | O=C(CC(=O)N1N=C(N2CCCCC2)CC1c1ccccc1)Nc1ccccc1 (stereo unspecified) | > 200 | > 200 µM | –
75 | Oc1c(C2=N[C@H]3CCCC[C@@H]3N2)ccc2ccccc12 | > 200 | > 200 µM | –
76 | Cc1cn([C@@H]2O[C@H](CO[Si](C)(C)C(C)(C)C)[C@]3(O[C@H]3C(=O)NO)[C@H]2O[Si](C)(C)C(C)(C)C)c(=O)[nH]c1=O | > 200 | 1.17 µM | –
77 | O=C1NC(=O)C2C1C1C=C3c4ccccc4N(c4ccccc4)C32[C@H]2C(=O)NC(=O)[C@@H]12 (stereo partly specified) | > 316 | 112 µM | –
78 | Cc1cc2c(c(C(N)=O)c1C)-c1cc(Cl)cc(Cl)c1C2=O | > 22.4 | > 22.4 µM | –
79 | Cc1cc2ncn(-c3nc4ccccc4nc3C(C#N)S(C)(=O)=O)c2cc1C (stereo unspecified) | > 646 | 57.5 µM | –
80 | CSc1nc(=S)[nH]c2c1c(C)nn2-c1ccccc1 | > 200 | 28.8 µM | –
81 | COc1ccccc1N(CN1C(=O)CCC1C(=O)O)C(C)=O (stereo unspecified) | – | – | inactive
82 | CCOC(=O)NC(NCC(O)c1ccccc1)(C(F)(F)F)C(F)(F)F (stereo unspecified) | > 200 | 174 µM | –
83 | CC(=O)O[C@H]1CC[C@@]2(C)C(=CC[C@@H]3C2CC[C@]2(C)Nc4nc5ccccc5cc4CC32)C1 (stereo partly specified) | – | – | inactive
84 | C=C1C(=O)OC2/C=C(\C)CC/C=C(\C)CC(OC(=O)/C(=C/CO)CO)[C@@H]12 (stereo partly specified) | > 200 | 0.933 µM | –
85 | N#CC(/C(CCCC(=O)Nc1cccc([N+](=O)[O-])c1)=N\NC(=O)c1c(O)ccc2ccccc12)c1nc2ccccc2s1 (stereo unspecified) | – | – | inactive

Source: PubChem BioAssay AID179 (DTP/NCI, 2004)
